Data: patent US9783853B2, “Recurrent gene fusions in cancer” (THE REGENTS OF THE UNIVERSITY OF MICHIGAN, priority 2013, dated 2017)

Columns and labels:
J82 xenografts = assay: Mouse xenograft model, tumor growth; assay type: in vivo, C.B17/SCID mice; details: increasing doses, intraperitoneal
Experimental: (§1) Five week-old male C.B17/SCID mice were procured from a breeding colony at University of Michigan, maintained by Dr. Kenneth Pienta. Mice were anesthetized using a cocktail of xylazine ([…], intraperitoneal) and ketamine (10 mg/kg, intraperitoneal) for chemical restraint. Bladder cancer cells SW780 (2 million cells for each implantation site) or J82 (5 million cells for each implantation site) were resuspended in 100 μl of 1×PBS with 20% Matrigel (BD Biosciences) and were implanted subcutaneously into flank region on both sides. Eight mice were included in each experimental group. All tumors were staged for two weeks (SW780 cells) and three weeks (J82 cells) before starting the drug treatment. Xenografted mice with palpable tumors were treated with a FGFR inhibitor PD173074 (Selleck Chemicals) dissolved in 5% ethanol in corn oil (intraperitoneal). Mice in control group received 5% ethanol in corn oil as vehicle control. Tumor growth was recorded weekly by using digital calipers and tumor volumes were calculated using the formula (π/6) (L×W2), where L=length of tumor and W=width. Any decrease in the body weight of mice was monitored bi-weekly during the course of the study. All experimental procedures involving mice were approved by the University Committee on Use and Care of Animals (UCUCA) at the University of Michigan and conform to their relevant regulatory standards.

SW780 xenografts = assay: Mouse xenograft model, tumor growth; assay type: in vivo, C.B17/SCID mice; details: increasing doses, intraperitoneal
Experimental: as §1

[1] = test system: SW780 cells (FGFR3-BAIAP2L1 fusion); assay: Cell proliferation assay (WST-1), FGFR inhibition; assay type: cell-based; details: 0, 5, 25, 100 nM
Experimental: For validation of fusion transcripts, quantitative RT-PCR assays were performed. Total cDNAs of index cases and negative control samples were synthesized using SuperScript III System according to the manufacturer's instructions (Invitrogen). Quantitative RT-PCR was performed using fusion-specific primers (Table 15) with SYBR Green Master Mix (Applied Biosystems) on the StepOne Real-Time PCR System (Applied Biosystems). The PCR products were further analyzed by agarose gel electrophoresis. Relative mRNA levels of the fusion transcripts were normalized to the expression of the housekeeping gene GAPDH. Inhibition of FGFR receptors and cell proliferation assay Bladder cancer cells SW780, J82, and HT1197 were seeded into 96-well plates in triplicate and allowed to attach before drug treatment. The FGFR inhibitor PD173074 (Selleck Chemicals) was added to the cultures at concentrations of 0, 5, 25, and 100 nM. Relative cell numbers were measured by WST-1 assays at indicated time points following the manufacturer's instructions (Roche).

Q: Which xenograft tumor growth (J82 xenografts) does the source give for `CCN(CC)CCCCNc1ncc2cc(-c3cc(OC)cc(OC)c3)c(NC(=O)NC(C)(C)C)nc2n1` [PD173074] here?
A: The xenograft tumor growth was “did not”.

Q: And the xenograft tumor growth (SW780 xenografts)?
A: Its xenograft tumor growth is “decreased tumor growth”.

Q: And the “sensitivity of cell line to FGFR inhibitor (cell proliferation)” value [1]?
A: Its value is “sensitive to nanomolar concentrations”.

Q: What about the “sensitivity of cell line to FGFR inhibitor (cell proliferation)” value ([1]; listed as PD 173074) of the same compound?
A: Its value is “enhanced sensitivity”.
